Non-standard residues stand in square brackets, D forms with d. Residues, ends and D or L forms follow the SMILES beside them. *: point of attachment. X9 = CC(C)C[C@H](NCCN*)C(=O)N[C@@H](CCCNC(=N)N)C(=O)N[C@@H](Cc1ccccc1)C(N)=O; NαAmidinoTrp = N=C(N)N[C@@H](Cc1c[nH]c2ccccc12)C(=O)*; Butyryl(4-indol-3-yl) = O=C(CCCc1c[nH]c2ccccc12)*; Arg(Me) = CNC(=N)NCCC[C@H](N)C(=O)O; d3Pal = N[C@H](Cc1cccnc1)C(=O)O; Hexanoyl = CCCCCC(=O)*; azaGly = NNC(=O)O
Target: T1, hOT7T175 (Homo sapiens, UniProt Q969F8)
T1 construct: expressed in transfected cells
Test: Intracellular Ca ion level-increasing activity using FLIPR (180 seconds; specific activity to Metastin (1-54))
Format: cell-based
Settings: hOT7T175/CHO, change in intracellular calcium ion level for 180 seconds, Tables 21-23
Description: In accordance with the method described in JPA 2000-312590, the intracellular Ca ion level-increasing activity was measured using FLIPR. […]
The intracellular Ca ion level-increasing activity of the synthetic peptide in hOT7T175/CHO was determined using FLIPR (Molecular Devices, Inc.).
hOT7T175/CHO was subcultured in DMEM supplemented with 10% dialyzed fetal bovine serum (hereinafter abbreviated as dFBS) and provided for the experiment (hereinafter abbreviated as 10% dFBS/DMEM). The hOT7T175/CHO was suspended in 10% dFBS-DMEM in 15×10^4 cells/ml. The suspension was inoculated on a 96-well plate for FLIPR (Black Plate Clear Bottom, Coster, Inc.) at 200 μl each (3.0×10^4 cells/200 μl), followed by incubation at 37° C. overnight in a 5% CO2 incubator. The cells thus incubated were used (hereinafter simply referred to as the cell plate). Then, 21 ml of HANKS/HBSS (9.8 g of HANKS', 0.35 g of sodium hydrogencarbonate, 20 ml of 1M HEPES; after adjusting the pH to 7.4 with 1N sodium hydroxide, the mixture was subjected to sterilization through a filter), 210 μl of […] Probenecid and 210 μl of fetal bovine serum (FBS) were mixed (HANKS/HBSS-Probenecid-FBS).
Furthermore, 2 vials of Fluo3-AM (50 μg/vial) were dissolved in 21 μL of dimethylsulfoxide and 21 μL of 20% Pluronic acid. The resulting solution was added to and mixed with 10 ml of HANKS/HBSS-Probenecid-FBS described above. After the culture medium was removed, the mixture was dispensed onto the cell plate in 100 μl each/well, followed by incubation at 37° C. for an hour in a 5% CO2 incubator (pigment loading). The peptide was dissolved in dimethylsulfoxide in 1×10^−3 M. The peptide solution was diluted with HANKS'/HBSS containing 2.5 mM Probenecid and 0.2% BSA. The dilution was transferred to a 96-well plate for FLIPR (V-Bottom plate, Coster, Inc.) (hereinafter referred to as a sample plate). After completion of the pigment loading onto the cell plate, the cell plate washed 4 times with wash buffer, which was obtained by adding 2.5 mM Probenecid to HANKS'/HBSS, using a plate washer to leave 100 μL of wash buffer after the washing. The cell plate and the sample plate were set in FLIPR and 0.05 ml of a sample from the sample plate was automatically transferred to the cell plate with the FLIPR device to promote the cell response. A change in intracellular calcium ion level for 180 seconds was measured with passage of time.

T1 sequence (Q969F8 whole entry L364H): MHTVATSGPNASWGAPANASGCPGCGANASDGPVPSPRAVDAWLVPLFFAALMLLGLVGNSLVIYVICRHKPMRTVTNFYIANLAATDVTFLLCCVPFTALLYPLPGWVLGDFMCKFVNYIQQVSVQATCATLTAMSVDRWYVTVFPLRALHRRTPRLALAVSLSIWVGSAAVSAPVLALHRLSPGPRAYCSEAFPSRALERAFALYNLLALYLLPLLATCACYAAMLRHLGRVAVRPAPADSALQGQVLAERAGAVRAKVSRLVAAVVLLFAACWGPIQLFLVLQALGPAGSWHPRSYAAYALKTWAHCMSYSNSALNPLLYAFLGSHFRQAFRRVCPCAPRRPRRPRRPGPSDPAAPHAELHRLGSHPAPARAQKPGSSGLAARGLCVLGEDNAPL

| Compound | intracellular Ca ion level-increasing activity [specific activity to Metastin (1-54)] |
| --- | --- |
| 1-Oxo-isochroman-3-carbonyl-AzaGly-Leu-Arg(Me)-Trp-NH2 [Compound No. 408] | ⅓ |
| 2-(Indol-3-yl)ethylcarbamoyl-Phe-AzaGly-Leu-Arg(Me)-Phe-NH2 [Compound No. 364] | 1 |
| 2-Azetidinecarbonyl-Phe-AzaGly-Leu-Arg(Me)-Trp-NH2 [Compound No. 466] | ⅓ |
| 2-Hydroxyisobutyryl-Phe-AzaGly-Leu-Arg(Me)-Trp-NH2 [Compound No. 453] | 1 |
| 2-Methylnicotinoyl-Phe-AzaGly-Leu-Arg(Me)-Trp-NH2 [Compound No. 443] | ½ |
| 2-Pyridinecarbonyl-Phe-AzaGly-Leu-Arg(Me)-Trp-NH2 [Compound No. 435] | 10 |
| 3-(3-Indolyl)propionyl-Phe-Gly-Leu-Arg-Phe-NH2 [Compound No. 352] | ⅓ |
| 3-(3-Pyridyl)propionyl-Phe-AzaGly-Leu-Arg(Me)-Phe-NH2 [Compound No. 340] | ⅕ |
| 3-Phenylpropionyl-AzaGly-Leu-Arg(Me)-Phe-NH2 [Compound No. 362] | 1/10 |
| 3-Pyridinecarbonyl-Phe-AzaGly-Leu-Arg(Me)-Trp-NH2 [Compound No. 432] | 2 |
| 4-Pyridinecarbonyl-Phe-AzaGly-Leu-Arg(Me)-Nal(2)-NH2 [Compound No. 461] | ⅓ |
| 4-Pyridinecarbonyl-Phe-AzaGly-Leu-Arg(Me)-Phe-NH2 [Compound No. 471] | 1 |
| 4-Pyridinecarbonyl-Phe-AzaGly-Leu-Har-Trp-NH2 [Compound No. 478] | ⅓ |
| 4-Pyridinecarbonyl-Phe-AzaGly-Leu-Orn-Trp-NH2 [Compound No. 477] | ⅕ |
| 4-Pyridinecarbonyl-Phe-AzaGly-Val-Arg(Me)-Trp-NH2 [Compound No. 460] | ⅓ |
| 5-Methylnicotinoyl-Phe-AzaGly-Leu-Arg(Me)-Trp-NH2 [Compound No. 444] | ⅓ |
| 6-Hydroxynicotinoyl-Phe-AzaGly-Leu-Arg(Me)-Trp-NH2 [Compound No. 462] | 1 |
| CNC(=N)NCCC[C@H](NC(=O)[C@H](CC(C)C)NC(=O)NNC(=O)[C@H](Cc1ccccc1)NC(=O)[C@H](CO)NC(=O)[C@H](CC(N)=O)NC(=O)[C@H](Cc1ccccc1)NC(=O)[C@H](N)Cc1cccnc1)C(=O)N[C@@H](Cc1ccccc1)C(N)=O [Compound No. 256, D-Pya(3)-Phe-Asn-Ser-Phe-AzaGly-Leu-Arg(Me)-Phe-NH2] (H-[d3Pal]FNSF[azaGly]L[Arg(Me)]F-NH2) | 1 |
| CNC(=N)NCCC[C@H](NC(=O)[C@H](CC(C)C)NC(=O)NNC(=O)[C@H](Cc1ccccc1)NC(=O)[C@H](CO)NC(=O)[C@H](CC(N)=O)NC(=O)[C@H](Cc1ccccc1)NC(=O)[C@@H](CC(N)=O)NC(=O)[C@H](N)Cc1ccc(O)cc1)C(=O)N[C@@H](Cc1ccccc1)C(N)=O [Compound No. 257, D-Tyr-D-Asn-Phe-Asn-Ser-Phe-AzaGly-Leu-Arg(Me)-Phe-NH2] (H-[dY][dN]FNSF[azaGly]L[Arg(Me)]F-NH2) | 3 |
| CNC(=N)NCCC[C@H](NC(=O)[C@H](CC(C)C)NC(=O)NNC(=O)[C@H](Cc1ccccc1)NC(=O)[C@H](CO)NC(=O)[C@H](CC(N)=O)NC(=O)[C@H](Cc1c[nH]c2ccccc12)NC(=O)[C@H](CC(N)=O)NC(=O)[C@H](N)Cc1cccnc1)C(=O)N[C@@H](Cc1ccccc1)C(N)=O [Compound No. 258, D-Pya(3)-Asn-Trp-Asn-Ser-Phe-AzaGly-Leu-Arg(Me)-Phe-NH2] (H-[d3Pal]NWNSF[azaGly]L[Arg(Me)]F-NH2) | 2 |
| CNC(=N)NCCC[C@H](NC(=O)[C@H](CC(C)C)NC(=O)NNC(=O)[C@H](Cc1ccccc1)NC(=O)[C@H](CO)NC(=O)[C@H](CC(N)=O)NC(=O)[C@H](Cc1c[nH]c2ccccc12)NC(=O)[C@H](CC(N)=O)NC(=O)[C@@H](C)N)C(=O)N[C@@H](Cc1ccccc1)C(N)=O [Compound No. 259, D-Ala-Asn-Trp-Asn-Ser-Phe-AzaGly-Leu-Arg(Me)-Phe-NH2] (H-[dA]NWNSF[azaGly]L[Arg(Me)]F-NH2) | 1 |
| CC(C)C[C@H](NCCNC(=O)[C@H](Cc1ccccc1)NC(=O)[C@H](CO)NC(=O)[C@H](CC(N)=O)NC(=O)[C@H](Cc1c[nH]c2ccccc12)NC(=O)[C@H](CC(N)=O)NC(=O)[C@@H](N)Cc1ccc(O)cc1)C(=O)N[C@@H](CCCNC(=N)N)C(=O)N[C@@H](Cc1ccccc1)C(N)=O [Compound No. 261, Tyr-Asn-Trp-Asn-Ser-Phe-GlyΨ(CH2NH)Leu-Arg-Phe-NH2] (H-YNWNSF-X9) | 1 |
| CNC(=N)NCCC[C@H](NC(=O)[C@H](CC(C)C)NC(=O)NNC(=O)[C@H](Cc1ccccc1)NC(=O)[C@H](CO)NC(=O)[C@H](CC(N)=O)NC(=O)CCCc1c[nH]c2ccccc12)C(=O)N[C@@H](Cc1ccccc1)C(N)=O [Compound No. 267, 4-(3-Indolyl)butyryl-Asn-Ser-Phe-AzaGly-Leu-Arg(Me)-Phe-NH2] ({Butyryl(4-indol-3-yl)}-NSF[azaGly]L[Arg(Me)]F-NH2) | 2 |
| CNC(=N)NCCC[C@H](NC(=O)[C@H](CC(C)C)NC(=O)NNC(=O)[C@H](Cc1ccccc1)NC(=O)[C@H](Cc1ccccc1)NC(=O)[C@H](CO)NC(=O)[C@H](CC(N)=O)NC(=O)[C@H](Cc1ccccc1)NC(=O)[C@H](CC(N)=O)NC(=O)[C@H](N)Cc1ccc(O)cc1)C(=O)N[C@@H](Cc1ccccc1)C(N)=O [Compound No. 270, D-Tyr-Asn-Phe-Asn-Ser-Phe-Phe-AzaGly-Leu-Arg(Me)-Phe-NH2] (H-[dY]NFNSFF[azaGly]L[Arg(Me)]F-NH2) | 1 |
| CNC(=N)NCCC[C@H](NC(=O)[C@H](CC(C)C)NC(=O)NNC(=O)[C@H](Cc1ccccc1)NC(=O)[C@H](CO)NC(=O)[C@H](CC(N)=O)NC(=O)[C@@H](N)Cc1c[nH]c2ccccc12)C(=O)N[C@@H](Cc1ccccc1)C(N)=O [Compound No. 271, Trp-Asn-Ser-Phe-AzaGly-Leu-Arg(Me)-Phe-NH2] (H-WNSF[azaGly]L[Arg(Me)]F-NH2) | 1 |
| CNC(=N)NCCC[C@H](NC(=O)[C@H](CC(C)C)NC(=O)NNC(=O)[C@H](Cc1ccccc1)NC(=O)[C@H](CO)NC(=O)[C@H](CC(N)=O)NC(=O)[C@H](Cc1c[nH]c2ccccc12)NC(C)=O)C(=O)N[C@@H](Cc1ccccc1)C(N)=O [Compound No. 272, Acetyl-Trp-Asn-Ser-Phe-AzaGly-Leu-Arg(Me)-Phe-NH2] (Ac-WNSF[azaGly]L[Arg(Me)]F-NH2) | 2 |
| CNC(=N)NCCC[C@H](NC(=O)[C@H](CC(C)C)NC(=O)NNC(=O)[C@H](Cc1ccccc1)NC(=O)[C@H](CO)NC(=O)[C@H](CC(N)=O)NC(=O)[C@H](Cc1c[nH]c2ccccc12)NC(=N)N)C(=O)N[C@@H](Cc1ccccc1)C(N)=O [Compound No. 273, Amidino-Trp-Asn-Ser-Phe-AzaGly-Leu-Arg(Me)-Phe-NH2] (NαAmidinoTrp-NSF[azaGly]L[Arg(Me)]F-NH2) | 5 |
| CCCCCC(=O)N[C@@H](CC(N)=O)C(=O)N[C@@H](CO)C(=O)N[C@@H](Cc1ccccc1)C(=O)NNC(=O)N[C@@H](CC(C)C)C(=O)N[C@@H](CCCNC(=N)NC)C(=O)N[C@@H](Cc1ccccc1)C(N)=O [Compound No. 277, n-Hexanoyl-Asn-Ser-Phe-AzaGly-Leu-Arg(Me)-Phe-NH2] (Hexanoyl-NSF[azaGly]L[Arg(Me)]F-NH2) | 2 |
